Values quoted from earlier work as cited in patent US7029703B2, “Composition for promoting healthy bone structure” (Metagenics, Inc., priority 1999, dated 2006).

Legend:
[1] = postmenopausal osteoporosis
[2] = 600 mg ipriflavone/day along with 1 gram calcium
[3] = in animals and in humans
osteoblast-like cells = conditions: in vitro
[4] = clinical trials; consumption data of up to 2 years

Row | Structure (SMILES) | rate of bone loss [1] | Urinary hydroxyproline/creatinine (HOP/Cr) [2] | serum osteocalcin (BGP) [2] | increase in BMD at the distal radius (DPA) ([2]; 28 osteoporotic elderly women, P<0.05) | estrogenic activity [3] | alkaline phosphatase activity (osteoblast-like cells) | collagen synthesis (osteoblast-like cells) | frequency of adverse reactions [4] | Bone pain (during the 1200/600 mg sequence of ipriflavone) | Serum alkaline phosphatase (ALP) decrease (following the 1200/600 mg ipriflavone sequence, P<0.01) | hydroxy proline/creatinine (HOP/Cr) decrease (following the 1200/600 mg ipriflavone sequence, P<0.05)
1 | O=C([O-])[O-].[Ca+2] [calcium carbonate] | reduced the rate of bone loss by about half |  |  |  |  |  |  |  |  |  | 
2 | CC(C)Oc1ccc2c(=O)c(-c3ccccc3)coc2c1 [ipriflavone, 7-isopropoxyisoflavone] |  | reduced | reduced | 6% | devoid of any estrogenic activity | increases | increases | equal to that observed during administration of a placebo | significantly decreased | 33% | 24.1%
